In patent US20070021441A1 (priority 2003, published 2007):
Where two headings read alike, the source gives them in different places.

Test system: Pyricularia oryzae
Format: in vivo
Settings: individual active compound, protective, inoculated next day, assessed after 6 days

| Compound | Efficacy in % of the untreated control (16 ppm in the spray liquor) | Efficacy in % of the untreated control (63 ppm in the spray liquor) |
| --- | --- | --- |
| CC1CCN(c2c(-c3c(F)cccc3Cl)c(Cl)nc3ncnn23)CC1 [A] | 35% | 61% |
| C[C@H](Nc1c(-c2c(F)cc(F)cc2F)c(Cl)nc2ncnn12)C(F)(F)F [B] | 48% | 61% |
| O=C1C2CC=CCC2C(=O)N1SC(Cl)(Cl)Cl (stereo not shown) [IIa, 2-trichloromethylsulfanyl-3a,4,7,7a-tetrahydroisoindole-1,3-dione] | 0% | 35% |
| O=C1c2ccccc2C(=O)N1SC(Cl)(Cl)Cl [IIb, 2-trichloromethylsulfanylisoindole-1,3-dione] | 0% | 8% |
| CC1CCN(c2c(-c3c(F)cc(F)cc3F)c(Cl)nc3ncnn23)CC1 [compound I, 5-chloro-7-(4-methylpiperidin-1-yl)-6-(2,4,6-trifluorophenyl)[1,2,4]triazolo[1,5-a]pyrimidine] | 21% | 48% |
